Results from patent US20070254907A1, “COMPOSITIONS AND METHODS FOR CONTROLLING INFESTATION” (HATCHTECH PTY LTD, priority 2003, published 2007).

Legend:
[1] = tested on: proteases in egg shell washings (ESW) of lice eggs; assay: Gelatin substrate SDS-PAGE of lice egg shell washings (ESW) incubated with protease inhibitors; format: biochemical, Pediculus humanus humanus
Protocol: Within 12 hours of hatching 50 body lice eggs (Pediculus humanus humanus) were removed from the hair and placed in a 1 mL eppendorf tube. 20 μL of distilled water was added to the unhatched eggs and the preparation incubated for 30 minutes at 32° C. The 20 μL was recovered, freeze dried and stored at −70° C. This sample was referred to as sample 1. A number of other samples were also collected as described. Sample 2 was collected by removing the unhatched louse eggs from four hairs that were approximately 3 cm long, cutting the hair into 0.5 cm lengths, and placing them into a microfuge tube containing 20 μl of distilled water and incubating at 32° C. for 30 minutes. Sample 3 was collected as for sample 2, but the hair was placed in a tube containing 10 mL of 1% sodium hypochlorite for 1 minute followed by five 1 minute washes in 25 mL of distilled water to remove the sodium hypochlorite before being incubated in a microfuge tube containing 20 μl of distilled water and incubated as for Sample 2. Sample 4 was collected from unhatched eggs which were removed from the hair and washed with 1% sodium hypochlorite and incubated in 20 μl of distilled water in the same manner as the hair in Sample 3. Finally, Sample 5 was collected from eggs that were within 24 hrs of hatching which were washed with 1% sodium hypochlorite, then returned to the incubator at 32° C. until they hatched, the empty egg shells collected 0-2 hrs after egg-hatching, placed in a 1 mL microfuge tube containing 20 μl of distilled water and incubated as for Samples 1-4. For all samples 1-5 the 20 μl of fluid was recovered, freeze-dried and stored at −70° C. The washings recovered from these freshly hatched egg shells are referred to as egg-shell-washings (ESWs). In order to look for the presence of proteases present in these different samples, the freeze-dried samples were resuspended in 15 μL of non-reducing SDS sample buffer, centrifuged at 10,000 g for 2 minutes and the entire 15 μL loaded on to 10% gelatine substrate SDS-PAGE gels. Gels were run at 4° C. for 10 minutes at 10 mA followed by a further 25 minutes at 15 mA per gel. They were then incubated for 2×20 minutes in a 2.5% Triton-X 100 solution followed by a three hour incubation in 0.1M Tris/HCl containing 1 mM CaCl2 pH 8.0. Activity was detected as clear areas on the gel the result of protease activity degrading the gelatine within the gel.
Protease activity in the ESWs from louse eggs was also examined using two-dimensional gel electrophoresis. It was necessary to collect large numbers of freshly hatched egg shells. Following egglaying onto pieces of cloth, adult female lice were removed and the cloth with the eggs washed with 1% sodium hypochlorite as for collection of ESWs. The eggs were then returned to the incubator and permitted to hatch. Typically 100 to 500 hatched egg shells were collected (0-2 hours post hatching), placed in a microfuge tube containing 200 μl of distilled water, incubated and sample treated as described above. For analysis, ESWs were resuspended in rehydration buffer (8 M Urea, 2% 3-[(3-cholamidopropyl) dimethylammonio]-1-propanesulfonate 2% Immobilised pH gradient buffer 3-10 (Amersham Phamacia Biotech, Uppsala, Sweden)) and used to rehydrate 7 cm Immobiline Dry strips pH 3-10 (Amersham Bioscience) overnight. Strips were transferred to the Multiphor II (Pharmacia, Sweden) apparatus, electrophoresed in the first dimension at 200 V for 1 min, increasing to 3,500 V over the next 90 min followed by 65 min at 3,500 V, equilibrated (6 M urea, 30% glycerol, 50 mM Tris pH 8.8 and 2% SDS) and then run on a 10% SDS-PAGE gel containing 0.1% gelatin for the second dimension. The gel was then run and developed as previously described.
10% SDS-PAGE gelatine substrate gels were loaded with freeze dried egg shell washings from 100 lice eggs that had been resuspended in 50 μL of non-reducing sample buffer with samples run at 10 μL per lane. […]

H. contortus eggs = assay: Egg hatching in Haemonchus contortus; format: in vivo
Protocol: In an attempt to improve control of H. contortus the effects of the compound 5,5′-dimethyl-2,2′-dipyridyl was examined on H. contortus eggs. Eggs were recovered from the faeces of infected sheep using a standard sucrose floatation method. The eggs were corrected to a density of approximately 2,500 eggs per mL and were then exposed to varying concentrations of compound and incubated for 48 hours at 25° C. The eggs were then examined to determine the ovicidal efficacy of the compound in comparison to untreated control and a solvent only control.
In addition, the ovicidal efficacy of the compound 2-acetyl-1-tetralone was examined against H. contortus (FIG. 10). The same protocol was used as described for 5,5′-dimethyl-2,2′-dipyridyl.

[2] = tested on: house dust mite Dermatophagoides spp; assay: House dust mite counts on treated filter paper; format: in vivo; settings: over the 2 week period, 25° C., 75% RH
Protocol: A filter paper (90 mm diameter) was taken and placed in a Petri dish of the same dimensions. The filter paper was then wetted throughout with the test compound, using a small air pump sprayer. The wetted filter paper was then allowed to dry in free flowing air. 200 mg dust mite medium, containing roughly 500 mites/g, was placed on the filter paper and the number of mites counted under a microscope. The arena was then left for 2 weeks on an incubator at 25° C. and 75% RH. After 2 weeks the number of mites in the arena was counted for a second time. This experiment was repeated 3 times with the test compound and a further 3 times using water as a control.

head lice eggs = assay: Head lice egg hatching with formulated compound; format: in vivo; settings: 20 mM formulation
Protocol: Gravid female lice were permitted to lay eggs. The eggs were counted, inspected under a light microscope and all eggs that appeared undamaged were allocated to one of two treatment groups. One group was exposed to 5′-dimethyl-2,2′-dipyridyl in a formulation, while the second group was exposed to the formulation only. The protocol was as follows:
Treatments: 5'-dimethyl-2,2'dipyridyl (20mM) n=10
Vehicle control only n=10
Exposure time: 10 minutes
Wash time: 1 minute @˜37° C.
Incubation: All eggs were placed at 31° C. in a humid incubator and monitored for signs of development specifically of the eye and subsequent hatching, see Table 21.

Row | Structure (SMILES) | protease activity of ESW, two dimensional gel electrophoresis ([1]; gel incubated with 10 mM inhibitor) | protease activity of ESW on gelatin SDS-PAGE compared to untreated controls ([1]; gel strips incubated with inhibitor: PMSF 5 mM, 1,10-phenanthroline 10 mM, EDTA 10 mM, pepstatin 5 μM, E-64 10 μM) | ovicidal efficacy on H. contortus eggs (H. contortus eggs; 180 and 18 ug/mL (1 and 0.1 mM), 48 hours at 25° C. (FIG. 8)) | effectiveness at inhibiting H. contortus egg hatching compared to ivermectin (H. contortus eggs; FIG. 8 versus FIG. 9) [×] | mite populations on the treated filter papers [2] | egg hatching in head lice (head lice eggs; 10 minutes, 1 minute wash) | eggs that failed to hatch (did not develop) (head lice eggs; n=10 eggs) [%]
1 | c1cnc2c(c1)ccc1cccnc12 [1,10-phenanthroline, reference compound] | general reduction in protease activity in the 25-30 kDa region and a clear reduction in the proteases present around the 50 kDa region and above 75 kDa | reduction in protease activity | – | – | – | – | –
2 | Cc1ccc(-c2ccc(C)cn2)nc1 [5,5′-dimethyl-2,2′-dipyridyl] | – | – | potently ovicidal | ~10 | small decline | significantly suppress egg hatching | 80
